We go through 4 compounds from US5030012A, “Pyroelectric calorimeter” (The United States of America as represented by the …, priority 1990, dated 1991).

Assay [1] concerns dark-adapted bullfrog retinas (rods). Description: Pyroelectric calorimetry and transretinal voltage of flash-stimulated dark-adapted retinas. Format: cell-based, bullfrog (R. catesbiana). The procedure: Dark-adapted bullfrog (R. catesbiana) retinas, removed under infrared illumination, were stored for 10 min to 1 hr in an oxygenated bath containing (in mM) Na^+ : 100, K^+ : 2.7, Ca^++ : 1.4, Mg^++ : 0.5, phosphate: 0.5, HEPES: 10, glucose: 11, EDTA: 0.01, pH 7.1. Cl^- was the main anion. Disks 6.3 mm. across were cut from a retina and attached by their vitreal surfaces to 25 μm. thick nylon mesh (Small Parts, Ltd., Miami, Fla.) disks of the same diameter.
Before use, each disk was soaked for 5 min in a medium containing 10 mM glutamate and 5 mM cysteine to suppress electrical responses from all retinal cells except the rods, cones and glial Muller cells. Using an infrared viewer, the disks were placed on the detector with receptor layer down and excess fluid was blotted away. Flowing moist oxygen replaced the atmosphere every 2 m.
6 μs flashes of spectral width 70 nm. centered at 500, 550 or 640 nm. from a Xenon flash tube were attenuated by a circular graded wedge and fed via a light pipe whose end was projected to a 6 mm circle at the retina. A computerized stepping motor turned the wedge so that flashes of varying intensity could be quickly delivered. The light input at the retina was measured with a silicon photovoltaic diode (International Light, Inc., Newburyport, Mass.). Exposures of the OS were calculated for a rod density in the retinal mosaic of 1.76×10^6 cm^-2. Cone and green rod pigments were neglected and rod porphyropsin was lumped with rhodopsin. Assuming the quantum efficiency of rhodopsin photoisomerization to be 0.6 and its molar absorbance at 550 nm to be 2.0×10^4 M^-1 cm^-1, its isomerization cross section ZR was 4.6×10^-17 cm^2.
In retinas incubated in glutamate Ringer containing […] and a ql of 1-2 μK followed by steady cooling lasting for more than 20 s. or until the dark current resumed. A second flash while the dark current was suppressed (as judged by the absence of change in Vr) gave no ql and no change in rl. In 30 experiments, Vr responses, whose amplitudes corresponded to dark currents of 20-50 pA/rod, were accompanied by ql bursts of 0.8 to 2 μK (mean ±s.e.e.: 1.09±0.05, n=24) while rl varied from -2 to -5 μKs^-1.
ql was unchanged by several agents that suppressed the dark current and changed rl. In this regard, the effects of flashes causing 180 PI/rod on retinal temperature and transretinal voltage were studied with an average of 2-4 trials with 60 s intervals between flashes, during which ql recovered. 30 mM ca^++ in the incubation fluid reduced Vr sixfold and changed rl 's sign while ql remained […] (n=4) μK. […] Nevertheless, a 180 PI/OS flash produced a ql of 1.6±0.1 (n=3) μK and rl of 4 μK/s.

In assay [2] the target is cGMP-induced cationic conductance of rod outer segment membrane patches. Particulars: cited from earlier work.

Bounds are passed on as bounds.

`C[C@@H]1O[C@@H](O[C@H]2C[C@@H](O)[C@]3(CO)[C@H]4[C@H](O)C[C@]5(C)[C@@H](C6=CC(=O)OC6)CC[C@]5(O)[C@@H]4CC[C@]3(O)C2)[C@H](O)[C@H](O)[C@H]1O` [ouabain]: in assay [1] (50 μM ouabain, 10 m. incubation), the “Vr (transretinal voltage response)” value is “no Vr”. Moreover, the “rl (steady heat flux)” value in assay [1] (50 μM ouabain, 180 PI/OS flash) was 4 μK/s. In assay [1] (50 μM ouabain, 180 PI/OS flash, n=3), the “ql (fast heat burst)” value is given as 1.6±0.1 μK.

As to `Nc1nc2c(ncn2[C@@H]2O[C@@H]3COP(=O)(O)O[C@H]3[C@H]2O)c(=O)[nH]1` [cGMP], in assay [2] (membrane patch conductance vs free [cGMP], various studies, read-out: dissociation constant Kc), the Kd is 10 to 42 µM. Also, the “concentration at which the cationic conductance of outer segment membranes increases rapidly and reversibly” value in assay [2] (outer segment membranes) was more than 5 µM.

For `c1c[nH]cn1` [imidazole], the “ql (fast heat burst)” value in assay [1] (20 mM imidazole in incubation medium, n=3) was 2.4±0.4 μK.

For the compound `CC(C)Cn1c(=O)n(C)c(=O)c2[nH]cnc21` [IBMX], in assay [1] (500 IBMX, 180 PI/rod), the “Vr (transretinal voltage response)” value is “suppressed” and the “ql (fast heat burst)” value is listed as “suppressed”. The “Vr (transretinal voltage response)” value in assay [1] (500 IBMX, tenfold brighter flashes) is recorded as “slow Vr waves”. In addition, the “ql (delayed heat)” value in assay [1] (500 IBMX, tenfold brighter flashes, n=6) is given as 2.1±0.1 μK.
